Test [1] has as its target T1, D2S receptor (recombinant human membrane, CHO cells) (Homo sapiens, UniProt P14416).
T1 construct: purchased Perkin Elmer Lot no; 1820984; host or cells: CHO cells
Briefly: radioligand receptor binding assay, [3H]-methylspiperone displacement. To be noted: mean ± S.D.; 0.2 nM [3H]-methylspiperone; assayed up to 100 or 30 μM; read-out: IC50 D2. The text has this: (§1) Recombinant human membrane preparations for M1 (expressed in CHO cells; Lot no. 1706299), 5-HT1A (HEK293 cells; no. 1812363), 5-HT2A (CHO cells; no. 1813092), D1 (L cells; no. 1840059), and D2S (CHO cells; no. 1820984) receptors and MicroScint-O scintillation cocktail were procured from Perkin Elmer (Waltham, MA, USA). [^3H] N-methylscopolamine (NMS), [^3H] 8-OH-DPAT, [^3H] ketanserin, [^3H] SCH 23390 and [^3H] methylspiperone were purchased from American Radiolabeled Chemicals (St. Louis, MO, USA). […] (DTNB) and donepezil hydrochloride were obtained from Sigma-Aldrich (St. Louis, MO, USA). Bacoside A, bacoside A3, bacopaside II, bacopaside X and bacopasaponin C were purchased from Chromadex Inc. (Irvine, CA, USA). Jujubogenin and ebelin lactone were purchased from Shanghai IS Chemical Technology Ltd. (Jinshan, Shanghai, China). Unless stated otherwise, all other reagents of analytical grade were obtained through standard commercial sources.
(§2) The assay was performed according to the methods published previously. […] Pseudojujubogenin and bacogenin A1 were not available for purchase at the time when the work was carried out. All compounds were dissolved in dimethylsulfoxide (DMSO) and the solvent was kept below 1% (v/v) in the final reaction mixture. Briefly, in each well, 100 μl of the respective membrane preparations (μg/well), 50 μl of the respective [^3H]-ligand and 50 μl of the test compounds were added and the total assay reaction volume was made up to 200 μl by adding assay buffer. […] The reaction mixture was incubated for 60 or 120 min at room temperature or 37°C for the respective membranes. The reaction was stopped by rapid filtration onto GF/C filter plates (presoaked in 0.5% polyethyleneimine) using FilterMate (Perkin Elmer) cell harvester and washed with wash buffer (200 μl for 5 times) to remove unbound ligands. The filter plates were dried at 60°C for 15 minutes before the application of Bottom Seal and addition of 50 μl MicroScint-O scintillation cocktail. The top of the plate was then sealed with TopSeal A. Radioactivity (CPM) was counted using TopCount NXT microplate scintillation counter (Perkin-Elmer). The data were analyzed by non-linear regression using Prism Version 5.0 (GraphPad Inc., San Diego CA, USA). The percentage of specific binding of radioligand in the presence of test compounds was calculated using the standard data reduction algorithm: ([B-NSB] / [TB-NSB]) × 100) where B is the binding in the presence of test compounds, NSB is the non-specific binding in the presence of excess reference ligand and TB is the total binding. K i values were calculated from the IC50 values using the Cheng-Prusoff equation [26].

Test [2] addresses T2, 5-HT1A receptor (recombinant human membrane, HEK293 cells) (Homo sapiens, UniProt P08908).
T2 construct: purchased Perkin Elmer Lot no; 1812363; host or cells: HEK293 cells
T2 sequence (P08908 1-422): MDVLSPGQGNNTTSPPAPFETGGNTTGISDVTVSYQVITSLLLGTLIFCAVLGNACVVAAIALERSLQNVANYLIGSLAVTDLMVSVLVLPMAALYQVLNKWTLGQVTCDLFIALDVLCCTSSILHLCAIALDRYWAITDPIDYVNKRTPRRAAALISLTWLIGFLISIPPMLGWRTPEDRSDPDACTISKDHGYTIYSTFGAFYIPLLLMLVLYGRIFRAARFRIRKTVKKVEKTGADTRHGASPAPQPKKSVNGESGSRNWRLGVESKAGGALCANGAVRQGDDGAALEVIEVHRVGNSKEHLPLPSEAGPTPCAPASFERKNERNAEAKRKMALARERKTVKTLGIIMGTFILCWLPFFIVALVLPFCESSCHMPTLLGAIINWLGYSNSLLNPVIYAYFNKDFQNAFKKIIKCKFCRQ
As to the kind of experiment: radioligand receptor binding assay, [3H]-8-OH-DPAT displacement. Conditions: mean ± S.D.; 2 nM [3H]-8-OH-DPAT; assayed up to 100 or 30 μM.
Source text: as §1, §2

Test [3] concerns the target T3, 5-HT2A receptor (recombinant human membrane, CHO cells) (Homo sapiens, UniProt P28223).
T3 construct: purchased Perkin Elmer Lot no; 1813092; host or cells: CHO cells
As to the kind of experiment: radioligand receptor binding assay, [3H]-ketanserin displacement. Conditions: for IC50: mean ± S.D., 1 nM [3H]-ketanserin, assayed up to 100 or 30 μM.
Source text: as §1, §2

The target of test [4] is T4, D1 receptor (recombinant human membrane, L cells) (Homo sapiens, UniProt P21728).
T4 construct: purchased Perkin Elmer Lot no; 1840059; host or cells: L cells
Briefly: radioligand receptor binding assay, [3H]-SCH 23390 displacement. To be noted: for IC50: mean ± S.D., 0.2 nM [3H]-SCH 23390, assayed up to 100 or 30 μM.
Source text: as §1, §2

Test [5] has as its target T5, M1 receptor (recombinant human membrane, CHO cells) (Homo sapiens, UniProt P11229).
T5 construct: purchased Perkin Elmer Lot no; 1706299; host or cells: CHO cells
T5 sequence (P11229 1-460): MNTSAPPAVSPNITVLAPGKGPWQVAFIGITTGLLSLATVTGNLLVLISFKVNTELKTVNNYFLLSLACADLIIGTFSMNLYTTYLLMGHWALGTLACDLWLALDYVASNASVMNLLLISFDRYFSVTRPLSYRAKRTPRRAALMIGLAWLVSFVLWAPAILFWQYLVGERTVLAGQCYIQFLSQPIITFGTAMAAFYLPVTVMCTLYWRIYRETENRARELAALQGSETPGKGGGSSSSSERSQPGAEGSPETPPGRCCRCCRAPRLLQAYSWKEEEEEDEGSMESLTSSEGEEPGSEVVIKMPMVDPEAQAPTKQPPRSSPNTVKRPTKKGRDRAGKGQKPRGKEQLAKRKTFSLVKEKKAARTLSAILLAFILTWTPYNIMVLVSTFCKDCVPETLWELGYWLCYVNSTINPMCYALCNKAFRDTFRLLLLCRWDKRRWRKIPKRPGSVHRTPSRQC
Briefly: radioligand receptor binding assay, [3H]-NMS displacement. To be noted: for IC50: mean ± S.D., 0.1 nM [3H]-NMS, assayed up to 100 or 30 μM.
Source text: as §1, §2

Another test deals with M1. More on the design: method as in PMID 24979399. Conditions: M1 agonists; cited from earlier work.
The mark [6] stands for this setting: from IC50 by Cheng-Prusoff equation.

The structures appear in SMILES notation.

T1 sequence (P14416 1-414 isoform P14416-2): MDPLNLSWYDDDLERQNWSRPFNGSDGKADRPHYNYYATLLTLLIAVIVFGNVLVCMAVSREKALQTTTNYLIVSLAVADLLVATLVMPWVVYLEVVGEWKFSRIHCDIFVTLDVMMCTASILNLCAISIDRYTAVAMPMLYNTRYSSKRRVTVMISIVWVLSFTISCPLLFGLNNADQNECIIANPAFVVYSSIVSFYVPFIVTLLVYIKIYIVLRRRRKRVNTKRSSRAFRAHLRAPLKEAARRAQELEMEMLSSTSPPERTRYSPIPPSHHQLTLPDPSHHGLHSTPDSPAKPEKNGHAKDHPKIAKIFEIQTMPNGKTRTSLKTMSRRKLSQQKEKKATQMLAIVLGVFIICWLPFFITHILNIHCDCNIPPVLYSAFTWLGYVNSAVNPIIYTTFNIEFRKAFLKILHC
T4 sequence (P21728 whole entry): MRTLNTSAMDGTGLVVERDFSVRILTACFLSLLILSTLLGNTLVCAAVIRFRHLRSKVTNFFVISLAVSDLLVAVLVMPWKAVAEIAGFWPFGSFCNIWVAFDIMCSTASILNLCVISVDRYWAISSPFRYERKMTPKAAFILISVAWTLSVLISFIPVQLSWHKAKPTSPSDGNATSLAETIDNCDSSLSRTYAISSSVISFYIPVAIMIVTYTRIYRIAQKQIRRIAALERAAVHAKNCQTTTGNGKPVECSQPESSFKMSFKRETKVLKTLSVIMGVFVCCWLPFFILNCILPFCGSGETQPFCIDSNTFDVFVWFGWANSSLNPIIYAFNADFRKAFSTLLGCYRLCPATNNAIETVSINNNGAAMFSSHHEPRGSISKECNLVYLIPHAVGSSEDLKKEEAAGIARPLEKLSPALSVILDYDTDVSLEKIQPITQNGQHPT
T3 sequence (P28223 whole entry): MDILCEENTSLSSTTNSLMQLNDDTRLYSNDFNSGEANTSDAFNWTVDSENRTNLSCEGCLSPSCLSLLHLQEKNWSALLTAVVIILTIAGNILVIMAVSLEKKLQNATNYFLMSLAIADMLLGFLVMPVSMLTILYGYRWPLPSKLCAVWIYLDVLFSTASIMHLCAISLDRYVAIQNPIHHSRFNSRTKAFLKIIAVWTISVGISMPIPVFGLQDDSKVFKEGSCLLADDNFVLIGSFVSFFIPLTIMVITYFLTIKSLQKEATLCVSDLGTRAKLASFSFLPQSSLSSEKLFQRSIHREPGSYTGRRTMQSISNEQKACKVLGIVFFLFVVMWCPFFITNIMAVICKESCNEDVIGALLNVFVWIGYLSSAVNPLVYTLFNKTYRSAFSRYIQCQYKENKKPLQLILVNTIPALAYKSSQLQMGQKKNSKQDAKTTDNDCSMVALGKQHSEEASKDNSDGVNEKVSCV

A word on the IC50: it is the concentration at which inhibition is half-maximal. What is called Ki is a dissociation constant, usually derived from enzyme kinetics or from competition with a known ligand. For the compound `CC(C)=CC=CC(C)=CC1CCC2C3(C)CCC(O)C(C)(C)C3CCC2(C)C12COC(=O)C2` (stereo not shown) [Ebelin Lactone, ebelin lactone], the IC50 in test [1] is > 30 µM; in test [2], > 30 µM; in test [3], 14.5 ± 4.98 µM; in test [4] it was > 30 µM; in test [5], 0.8 ± 0.19 µM. Besides, the inhibitory constant (Ki) in test [3] (setting [6]) is 4.21 µM; in test [5] (setting [6]), 0.45 µM.
Take `CC(C)=CC1CC(C)(O)C2C3CCC4C5(C)CCC(O)C(C)(C)C5CCC4(C)C34COC2(C4)O1` (stereo not shown) [Jujubogenin, jujubogenin]: the IC50 in test [1], in test [2], in test [3], in test [4] and in test [5] was > 30 µM throughout.
For `CC(C)=C[C@H]1C[C@](C)(O)[C@@H]2[C@H]3CC[C@@H]4[C@@]5(C)CC[C@H](O[C@@H]6OC[C@H](O)[C@H](O[C@@H]7O[C@H](CO)[C@@H](O)[C@H](O)[C@H]7O)[C@H]6O[C@@H]6O[C@@H](CO)[C@H](O)[C@H]6O)C(C)(C)[C@@H]5CC[C@@]4(C)[C@@]34CO[C@@]2(C4)O1` [Bacopaside X, bacopaside X], the concentration for half-maximal inhibition (IC50) in test [1] is > 100 µM; in test [2], > 100 µM; in test [3], > 100 µM; in test [4], 19.5 ± 3.07 µM; in test [5] it was > 100 µM. Besides, in test [4] (setting [6]), the inhibition constant (Ki) was 9.06 µM.
For `CC(=O)OCC[N+](C)(C)C` [acetylcholine], the Ki on M1 is 59 µM.
On to `CC(C)=C[C@@H]1CO[C@]23C[C@]4(CO2)[C@H](CC[C@@H]2[C@@]5(C)CC[C@H](O[C@@H]6OC[C@H](O)[C@H](O[C@@H]7O[C@H](CO)[C@@H](O)[C@H](O)[C@H]7O)[C@H]6O[C@@H]6O[C@@H](CO)[C@H](O)[C@H]6O)C(C)(C)[C@@H]5CC[C@]24C)[C@H]3[C@@]1(C)O` [Bacopasaponin C, bacopasaponin C], for which the half-inhibitory concentration (IC50) in test [1], in test [2], in test [3], in test [4] and in test [5] was > 100 µM in each case.
For the compound `CC(C)=C[C@H]1C[C@](C)(O)[C@@H]2[C@H]3CC[C@@H]4[C@@]5(C)CC[C@H](O[C@@H]6O[C@H](CO)[C@@H](O)[C@H](O[C@@H]7O[C@H](CO)[C@@H](O)[C@H](O)[C@H]7O)[C@H]6O[C@@H]6O[C@@H](CO)[C@H](O)[C@H]6O)C(C)(C)[C@@H]5CC[C@@]4(C)[C@@]34CO[C@@]2(C4)O1` [Bacoside A3, bacoside A3], the IC50 in test [1], in test [2], in test [3], in test [4] and in test [5] was > 100 µM in each case.
Consider `CC(C)=CC1COC23CC4(CO2)C(CCC2C5(C)CCC(OC6OC(CO)C(O)C(OC7OC(CO)C(O)C(O)C7O)C6OC6OC(CO)C(O)C6O)C(C)(C)C5CCC24C)C3C1(C)O` (stereo not shown) [Bacopaside II, bacopaside II], for which the IC50 in test [1], in test [2], in test [3], in test [4] and in test [5] was > 30 µM in each case.

The record behind these values is article PMC4428790, “In Silico and In Vitro Analysis of Bacoside A Aglycones and Its Derivatives as the Constituents Responsible for the Cognitive Effects of Bacopa monnieri” (PLoS ONE, 2015).
